Legend:
Assay in all cases: combination Emax (second highest fraction inhibited in the dose matrix, 72 h); higher = more inhibition; extreme values may be limits of the assay
[1] = system: OE21 (Esophageal Squamous Cell Carcinoma)
Outline: (§1)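 After 24 hours at 37°C and 5% CO2 in 1536-well plates, cells in DMEM/F12 or RPMI plus 10% FBS received two-drug dose matrices for 72 hours. Viability came from CellTiter-Glo 2.0 luminescence and was scaled as inhibition, anchored at 0 by vehicle wells and at 1 by blank wells. Combination Emax is taken as the second-highest inhibition in the matrix, and Bliss excess as the observed combination effect less EA + EB − EA·EB, with EA and EB the single-agent effects.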

[2] = system: L-428 (Hodgkin's Lymphoma)
Outline: as §1

[3] = system: NCI-H1568 (Lung Adenocarcinoma)
Outline: as §1

[4] = system: HuH-7 (Hepatocellular Carcinoma)
Outline: as §1

[5] = system: Detroit562 (Head and Neck Carcinoma)
Outline: as §1

[6] = system: NCI-H209 (Small Cell Lung Carcinoma)
Outline: as §1

LOXIMVI (Melanoma) = system: LOXIMVI (Melanoma)
Outline: as §1

[7] = system: CAL-33 (Oral Cavity Carcinoma)
Outline: as §1

[8] = system: LS-123 (Colorectal Carcinoma)
Outline: as §1

[9] = system: FTC-133 (Thyroid Gland Carcinoma)
Outline: as §1

[10] = system: Hs-746T (Gastric Carcinoma)
Outline: as §1

CAL-72 (Osteosarcoma) = system: CAL-72 (Osteosarcoma)
Outline: as §1

[11] = system: HuCCT1 (Biliary Tract Carcinoma)
Outline: as §1

[12] = system: SAS (Oral Cavity Carcinoma)
Outline: as §1

[13] = system: NCI-H524 (Small Cell Lung Carcinoma)
Outline: as §1

NCI-H2052 (Mesothelioma) = system: NCI-H2052 (Mesothelioma)
Outline: as §1

NCI-H2722 (Mesothelioma) = system: NCI-H2722 (Mesothelioma)
Outline: as §1

[14] = system: HeLa (Cervical Carcinoma)
Outline: as §1

[15] = system: SW1573 (Lung Adenocarcinoma)
Outline: as §1

[16] = system: OV-56 (Ovarian Carcinoma)
Outline: as §1

Row | Structure (SMILES) | combination Emax [1] | combination Emax [2] | combination Emax [3] | combination Emax [4] | combination Emax [5] | combination Emax [6] | combination Emax (LOXIMVI (Melanoma)) | combination Emax [7] | combination Emax [8] | combination Emax [9] | combination Emax [10] | combination Emax (CAL-72 (Osteosarcoma)) | combination Emax [11] | combination Emax [12] | combination Emax [13] | combination Emax (NCI-H2052 (Mesothelioma)) | combination Emax (NCI-H2722 (Mesothelioma)) | combination Emax [14] | combination Emax [15] | combination Emax [16]
1 | CC(=O)c1c(C)c2cnc(Nc3ccc(N4CCNCC4)cn3)nc2n(C2CCCC2)c1=O [Palbociclib] + CC1(C)CCC(CN2CCN(c3ccc(C(=O)NS(=O)(=O)c4ccc(NCC5CCOCC5)c([N+](=O)[O-])c4)c(Oc4cnc5[nH]ccc5c4)c3)CC2)=C(c2ccc(Cl)cc2)C1 [Venetoclax] (first compound max 10 µM, 7x7, partner max 1 µM) | 0.229 | 0.467 | 0.423 | 0.0832 | 0.543 | 0.921 | 0.515 | 0.113 | 0.138 | 0.0919 | 0.24 | 0.345 | 0.309 | 0.47 | 0.685 | 0.133 | 0.118 | 0.0741 | 0.204 | 0.117
2 | CC(=O)c1c(C)c2cnc(Nc3ccc(N4CCNCC4)cn3)nc2n(C2CCCC2)c1=O [Palbociclib] + Cc1c2c(nn1C)CSCc1cc(n(C)n1)CSc1cc(c3ccccc3c1)OCCCc1c(C(=O)O)n(C)c3c-2c(Cl)ccc13 [AZD5991] (first compound max 10 µM, 7x7, partner max 1 µM) | 0.393 | 0.353 | 0.418 | 0.215 | 0.569 | 0.908 | 0.543 | 0.291 | 0.207 | 0.18 | 0.299 | 0.441 | 0.32 | 0.538 | 0.808 | 0.304 | 0.213 | 0.39 | 0.2 | 0.0925
3 | CC(=O)c1c(C)c2cnc(Nc3ccc(N4CCNCC4)cn3)nc2n(C2CCCC2)c1=O [Palbociclib] + Cn1cnc2c(F)c(Nc3ccc(Br)cc3Cl)c(C(=O)NOCCO)cc21 [Selumetinib] (first compound max 10 µM, 7x7, partner max 10 µM) | 0.54 | 0.395 | 0.206 | 0.344 | 0.588 | 0.594 | 0.744 | 0.382 | 0.428 | 0.202 | 0.49 | 0.361 | 0.556 | 0.711 | 0.739 | 0.189 | 0.113 | 0.104 | 0.164 | 0.141
4 | COc1cccc(OCCCN)c1-c1cc(Nc2cnc(C#N)cn2)n[nH]1 [Prexasertib] + C=CCn1c(=O)c2cnc(Nc3ccc(N4CCN(C)CC4)cc3)nc2n1-c1cccc(C(C)(C)O)n1 [AZD1775] (first compound max 1 µM, partner max 1 µM) | 0.733 | 0.955 | 0.563 | 0.438 | 0.949 | 0.988 | 0.859 | 0.916 | 0.828 | 0.858 | 0.78 | 0.891 | 0.827 | 0.969 | 1 | 0.699 | 0.308 | 0.91 | 0.582 | 0.921
5 | COc1cccc(OCCCN)c1-c1cc(Nc2cnc(C#N)cn2)n[nH]1 [Prexasertib] + CCc1c2c(nc3ccc(O)cc13)-c1cc3c(c(=O)n1C2)COC(=O)[C@]3(O)CC [SN-38] (first compound max 1 µM, 7x7, partner max 0.3 µM) | 0.813 | 0.979 | 0.848 | 0.861 | 1 | 1 | 0.875 | 0.957 | 0.871 | 1 | 0.813 | 0.949 | 0.875 | 0.999 | 1 | 0.853 | 0.471 | 0.865 | 0.925 | 0.996
6 | COc1cccc(OCCCN)c1-c1cc(Nc2cnc(C#N)cn2)n[nH]1 [Prexasertib] + CN(C)CCCOc1ccc(-c2ccc3ncc4c(c3c2)n(C2CCOCC2)c(=O)n4C)cn1 [AZD0156] (first compound max 1 µM, 7x7, partner max 1 µM) | 0.726 | 0.958 | 0.538 | 0.347 | 0.922 | 0.94 | 0.862 | 0.807 | 0.752 | 0.805 | 0.78 | 0.847 | 0.819 | 0.926 | 0.97 | 0.556 | 0.193 | 0.859 | 0.201 | 0.895
7 | COc1cccc(OCCCN)c1-c1cc(Nc2cnc(C#N)cn2)n[nH]1 [Prexasertib] + C[C@@H]1COCCN1C2=NC(=NC(=C2)C3(CC3)[S@](=N)(=O)C)C4=C5C=CNC5=NC=C4 [AZD6738] (first compound max 1 µM, 7x7, partner max 10 µM) | 0.745 | 0.95 | 0.526 | 0.34 | 0.918 | 0.959 | 0.849 | 0.916 | 0.796 | 0.861 | 0.754 | 0.869 | 0.835 | 0.943 | 0.998 | 0.537 | 0.304 | 0.864 | 0.236 | 0.916
8 | COc1cccc(OCCCN)c1-c1cc(Nc2cnc(C#N)cn2)n[nH]1 [Prexasertib] + Cc1cc2ncnn2cc1Nc1ncc2c(n1)n(C1CCOCC1)c(=O)n2C [AZD7648] (first compound max 1 µM, 7x7, partner max 10 µM) | 0.788 | 0.958 | 0.54 | 0.329 | 0.922 | 0.974 | 0.784 | 0.816 | 0.764 | 0.82 | 0.78 | 0.994 | 0.83 | 0.926 | 0.988 | 0.649 | 0.216 | 0.839 | 0.201 | 0.88
9 | COc1cccc(OCCCN)c1-c1cc(Nc2cnc(C#N)cn2)n[nH]1 [Prexasertib] + O=C(c1cc(Cc2n[nH]c(=O)c3ccccc23)ccc1F)N1CCN(C(=O)C2CC2)CC1 [Olaparib] (first compound max 1 µM, 7x7, partner max 10 µM) | 0.678 | 0.953 | 0.481 | 0.3 | 0.922 | 0.965 | 0.788 | 0.833 | 0.771 | 0.915 | 0.806 | 0.81 | 0.844 | 0.93 | 0.929 | 0.589 | 0.234 | 0.773 | 0.241 | 0.89
10 | CCc1c2c(nc3ccc(O)cc13)-c1cc3c(c(=O)n1C2)COC(=O)[C@]3(O)CC [SN-38] + CN(C)CCCOc1ccc(-c2ccc3ncc4c(c3c2)n(C2CCOCC2)c(=O)n4C)cn1 [AZD0156] (first compound max 0.3 µM, 7x7, partner max 1 µM) | 0.678 | 0.894 | 0.474 | 0.149 | 0.848 | 1 | 0.784 | 0.936 | 0.481 | 0.959 | 0.531 | 0.774 | 0.508 | 1 | 0.608 | 0.837 | 0.301 | 0.295 | 0.794 | 0.88
11 | Cn1cnc2c(F)c(Nc3ccc(Br)cc3Cl)c(C(=O)NOCCO)cc21 [Selumetinib] + C=CCn1c(=O)c2cnc(Nc3ccc(N4CCN(C)CC4)cc3)nc2n1-c1cccc(C(C)(C)O)n1 [AZD1775] (first compound max 10 µM, partner max 1 µM) | 0.683 | 0.808 | 0.489 | 0.327 | 0.639 | 0.858 | 0.854 | 0.836 | 0.542 | 0.778 | 0.636 | 0.519 | 0.793 | 0.678 | 0.617 | 0.284 | 0.304 | 0.437 | 0.361 | 0.0799
12 | Cn1cnc2c(F)c(Nc3ccc(Br)cc3Cl)c(C(=O)NOCCO)cc21 [Selumetinib] + CC(C)n1c(=O)n(C)c2cnc3cc(F)c(-c4ccc(OCCCN5CCCCC5)nc4)cc3c21 [AZD1390] (first compound max 10 µM, 7x7, partner max 0.3 µM) | 0.386 | 0.0975 | 0.142 | 0.275 | 0.367 | 0.0904 | 0.658 | 0.755 | 0.488 | 0.166 | 0.411 | 0.165 | 0.517 | 0.408 | 0.0936 | 0.193 | 0.0639 | 0.0672 | 0 | 0.133
13 | Cn1cnc2c(F)c(Nc3ccc(Br)cc3Cl)c(C(=O)NOCCO)cc21 [Selumetinib] + CCN(CCO)CCCOc1ccc2c(Nc3cc(CC(=O)Nc4cccc(F)c4)[nH]n3)ncnc2c1 [AZD2811] (first compound max 10 µM, 7x7, partner max 1 µM) | 0.441 | 0.235 | 0.207 | 0.293 | 0.743 | 0.431 | 0.683 | 0.653 | 0.425 | 0.415 | 0.478 | 0.181 | 0.525 | 0.471 | 0.955 | 0.232 | 0.186 | 0.171 | 0.251 | 0.116
